What was measured:
Assay in all cases: relative viability (nuclei count vs DMSO), 5 days (fraction); higher = more cells survive
SK-MES-1 = system: SK-MES-1
Method in brief: (§1)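 Values are medians from duplicate plates. Each reflects relative viability, defined as the nuclei count of treated wells over that of vehicle wells. Lung cancer cell lines in 1536-well plates were pin-tool dosed one day after seeding with one drug alone or with a fixed anchor-drug dose plus five library-drug doses (not always all listed) in √10 steps, then fixed, stained and imaged at 4× after 5 days.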

LU99A = system: LU99A
Method in brief: as §1

ChaGo-K-1 = system: ChaGo-K-1
Method in brief: as §1

NCI-H1650 = system: NCI-H1650
Method in brief: as §1

LXF-289 = system: LXF-289
Method in brief: as §1

A-427 = system: A-427
Method in brief: as §1

NCI-H2347 = system: NCI-H2347
Method in brief: as §1

NCI-H727 = system: NCI-H727
Method in brief: as §1

NCI-H1975 = system: NCI-H1975
Method in brief: as §1

CAL-12T = system: CAL-12T
Method in brief: as §1

NCI-H1993 = system: NCI-H1993
Method in brief: as §1

COR-L 105 = system: COR-L 105
Method in brief: as §1

NCI-H2009 = system: NCI-H2009
Method in brief: as §1

NCI-H1395 = system: NCI-H1395
Method in brief: as §1

HOP-62 = system: HOP-62
Method in brief: as §1

NCI-H1666 = system: NCI-H1666
Method in brief: as §1

NCI-H460 = system: NCI-H460
Method in brief: as §1

BEN = system: BEN
Method in brief: as §1

EPLC-272H = system: EPLC-272H
Method in brief: as §1

NCI-H441 = system: NCI-H441
Method in brief: as §1

NCI-H1793 = system: NCI-H1793
Method in brief: as §1

For `Nc1cccc2c1CN(C1CCC(=O)NC1=O)C2=O` (centres undefined) [Lenalidomide] + CC1(C)CCC(c2ccc(Cl)cc2)=C(CN2CCN(c3ccc(C(=O)NS(=O)(=O)c4ccc(N[C@H](CCN5CCOCC5)CSc5ccccc5)c(S(=O)(=O)C(F)(F)F)c4)cc3)CC2)C1 [Navitoclax] (partner 0.5 µM), the relative viability (SK-MES-1; first compound 0.253 µM) was 1.12, the relative viability (SK-MES-1; first compound 0.8 µM) was 1.15 and the relative viability (SK-MES-1; first compound 2.53 µM) was 1.3. It also gave a relative viability (SK-MES-1; first compound 8 µM) of 1.17, a relative viability (LU99A; first compound 0.253 µM) of 0.853 and a relative viability (LU99A; first compound 0.8 µM) of 0.963. The relative viability (LU99A; first compound 2.53 µM) was 0.925, the relative viability (LU99A; first compound 8 µM) was 0.502 and the relative viability (ChaGo-K-1; first compound 0.253 µM) was 1.08. It also gave a relative viability (ChaGo-K-1; first compound 2.53 µM) of 1.05, a relative viability (ChaGo-K-1; first compound 8 µM) of 0.949 and a relative viability (NCI-H1650; first compound 0.253 µM) of 1.06. The relative viability (NCI-H1650; first compound 0.8 µM) was 1.22, the relative viability (NCI-H1650; first compound 2.53 µM) was 1.4 and the relative viability (NCI-H1650; first compound 8 µM) was 1.24. The relative viability (LXF-289; first compound 0.253 µM) was 0.963, the relative viability (LXF-289; first compound 0.8 µM) was 0.971 and the relative viability (LXF-289; first compound 2.53 µM) was 1.01. For the same compound, the relative viability (LXF-289; first compound 8 µM) was 1.06, the relative viability (A-427; first compound 0.253 µM) was 0.99 and the relative viability (A-427; first compound 2.53 µM) was 0.911. For the same compound, the relative viability (A-427; first compound 8 µM) was 0.832, the relative viability (NCI-H2347; first compound 0.253 µM) was 0.788 and the relative viability (NCI-H2347; first compound 0.8 µM) was 0.747. It also gave a relative viability (NCI-H2347; first compound 2.53 µM) of 0.842, a relative viability (NCI-H2347; first compound 8 µM) of 0.721 and a relative viability (NCI-H727; first compound 0.253 µM) of 0.449. The relative viability (NCI-H727; first compound 2.53 µM) was 0.387, the relative viability (NCI-H727; first compound 8 µM) was 0.345 and the relative viability (NCI-H1975; first compound 0.253 µM) was 1.13. It also gave a relative viability (NCI-H1975; first compound 0.8 µM) of 1.07, a relative viability (NCI-H1975; first compound 2.53 µM) of 1.25 and a relative viability (NCI-H1975; first compound 8 µM) of 1.19. It also gave a relative viability (CAL-12T; first compound 0.253 µM) of 1.4, a relative viability (CAL-12T; first compound 0.8 µM) of 1.33 and a relative viability (CAL-12T; first compound 2.53 µM) of 1.7. For the same compound, the relative viability (CAL-12T; first compound 8 µM) was 1.3, the relative viability (NCI-H1993; first compound 0.253 µM) was 0.906 and the relative viability (NCI-H1993; first compound 0.8 µM) was 0.855. The relative viability (NCI-H1993; first compound 2.53 µM) was 0.88, the relative viability (NCI-H1993; first compound 8 µM) was 0.797 and the relative viability (COR-L 105; first compound 0.253 µM) was 0.45. It also gave a relative viability (COR-L 105; first compound 0.8 µM) of 0.81, a relative viability (COR-L 105; first compound 2.53 µM) of 0.717 and a relative viability (COR-L 105; first compound 8 µM) of 0.883. The relative viability (NCI-H2009; first compound 0.253 µM) was 1.21, the relative viability (NCI-H2009; first compound 0.8 µM) was 1.26 and the relative viability (NCI-H2009; first compound 2.53 µM) was 1.21. For the same compound, the relative viability (NCI-H2009; first compound 8 µM) was 1.28, the relative viability (NCI-H1395; first compound 0.253 µM) was 1.2 and the relative viability (NCI-H1395; first compound 2.53 µM) was 1.31. For the same compound, the relative viability (NCI-H1395; first compound 8 µM) was 0.978, the relative viability (HOP-62; first compound 0.253 µM) was 1.07 and the relative viability (HOP-62; first compound 0.8 µM) was 0.985. The relative viability (HOP-62; first compound 2.53 µM) was 0.944, the relative viability (HOP-62; first compound 8 µM) was 1.04 and the relative viability (NCI-H1666; first compound 0.253 µM) was 0.915. For the same compound, the relative viability (NCI-H1666; first compound 0.8 µM) was 0.893, the relative viability (NCI-H1666; first compound 2.53 µM) was 0.837 and the relative viability (NCI-H1666; first compound 8 µM) was 0.856. The relative viability (NCI-H460; first compound 0.253 µM) was 0.811, the relative viability (NCI-H460; first compound 0.8 µM) was 1.28 and the relative viability (NCI-H460; first compound 2.53 µM) was 1.15. It also gave a relative viability (NCI-H460; first compound 8 µM) of 1.13, a relative viability (BEN; first compound 0.253 µM) of 0.0599 and a relative viability (BEN; first compound 0.8 µM) of 0.0573. The relative viability (BEN; first compound 2.53 µM) was 0.0663, the relative viability (BEN; first compound 8 µM) was 0.0611 and the relative viability (EPLC-272H; first compound 0.253 µM) was 1.24. The relative viability (EPLC-272H; first compound 2.53 µM) was 0.917, the relative viability (EPLC-272H; first compound 8 µM) was 0.741 and the relative viability (NCI-H441; first compound 0.253 µM) was 0.507. For the same compound, the relative viability (NCI-H441; first compound 0.8 µM) was 0.348, the relative viability (NCI-H441; first compound 2.53 µM) was 0.52 and the relative viability (NCI-H441; first compound 8 µM) was 0.513. It also gave a relative viability (NCI-H1793; first compound 0.253 µM) of 0.349, a relative viability (NCI-H1793; first compound 0.8 µM) of 0.449 and a relative viability (NCI-H1793; first compound 2.53 µM) of 0.426. It also gave a relative viability (NCI-H1793; first compound 8 µM) of 0.315.

— the supplement of paper PMC10307832
